# Measured values reported in ChEMBL document CHEMBL1130377 (J Med Chem, 1997).
# Molecular target: Melatonin receptor (Gallus gallus, UniProt P49288+P51050+P49285)
# Assay: Binding affinity against chicken brain melatonin receptors using 2-[125I]iodomelatonin as radioligand
row,Structure (SMILES),Log Ki
1,CCCNC(=O)NCCc1c[nH]c2ccc(OC)cc12,-8.17
2,CCOc1ccc2ccccc2c1CCNC(=O)CC,-8.97
3,COc1ccc2cccc(CCNC(=O)C3CC3)c2c1,-7.71
4,CCOc1ccc2ccccc2c1CCNC(C)=O,-8.45
5,COc1ccc2ccccc2c1CCNC(=O)C(F)(F)F,-9.26
6,CCC(=O)NCCc1c(OC)ccc2ccc(OC)cc12,-10.14
7,CCCC(=O)NCCc1cccc2ccc(OC)cc12,-10.53
8,COc1ccc(C)cc1CCNC(C)=O,-6.71
9,COc1ccc2[nH]cc(CCNC(=O)C3CC3)c2c1,-8.6
10,CCC(=O)NCCc1cccc2ccc(OC)cc12,-9.74
11,CC(=O)NCCc1cccc2ccc(O)cc12,-7.52
12,CCOc1ccc2ccccc2c1CCNC(=O)C(F)(F)F,-8.23
13,COc1ccc(-c2ccccc2)cc1CCNC(C)=O,-6.54
14,COc1ccc2cccc3c2c1CC(NC(C)=O)C3 (stereo not drawn),-7.46
15,COc1ccc(C)cc1CCNC(=O)C(F)(F)F,-6.64
16,CCC(=O)NCCc1cc(Br)ccc1OC,-8.94
17,CCCCC(=O)NCCc1cccc2ccccc12,-6.62

row,Structure (SMILES),Log Ki
1,COc1cccc(CCNC(=O)C(F)(F)F)c1,-5.72
2,COc1ccc2ccc(OC)c(CCNC(C)=O)c2c1,-9.62
3,CCC(=O)NCCc1cc(OC)cc2ccc(OC)cc12,-7.92
4,COc1ccc2cccc(CCNC=O)c2c1,-8.03
5,COc1ccc2cccc(CONC(C)=O)c2c1,-8.77
6,COc1cc2c(CCNC(=O)C3CC3)c[nH]c2cc1F,-8.6
7,CCC(=O)NCCc1c(OC)ccc2cc(C)ccc12,-7.19
8,COc1ccc2cccc(CCNC(=O)CBr)c2c1,-9.92
9,COc1ccc2ccccc2c1CONC(C)=O,-7.25
10,COc1ccc2ccc(OC)c(CCNC(=O)C(F)(F)F)c2c1,-9.41
11,COc1cc2ccccc2c2c1CC(NC(C)=O)CC2 (stereo not drawn),-6.67
12,COc1ccc(OC)c(CCNC(=O)C(F)(F)F)c1,-6.94
13,CCCCC(=O)NCCc1cccc2ccc(OC)cc12,-7.35
14,CC(=O)NCCc1c[nH]c2ccccc12,-6.31
15,COc1ccc(OC)c(CCNC(C)=O)c1,-7.15
16,CCCC(=O)NCCc1c[nH]c2cc(F)c(OC)cc12,-9.85
